Legend:
[1] = tested on: H358 lung cancer tumor; assay: Histopathology of H358 tumor sections; format: in vivo, mouse; settings: treated vs control
Description: For lung cancer studies, control and COH-SR4 treated H358 lung cancer bearing mice tumor sections were used for histopathologic analyses. Immuno-histochemistry analyses were performed for Ki67, CD31, E-cadherin, and pAMPK expressions. […] Sections were counterstained with Hematoxylin (blue). Photomicrographs at 40× magnification were acquired using Olympus DP 72 microscope and were processed with DP2-BSW software. Percent staining was determined by measuring positive immuno-reactivity per unit area. The intensity of antigen staining was quantified by digital image analysis using Image Pro plus 6.3 software.
Control and COH-SR4 treated tumor sections obtained from the in-vivo animal studies of Example 31 were used for histopathologic analyses. […] Arrows represent the area for positive staining for an antigen. Bars represent means with 95% confidence intervals (n=5). Asterisks denote statistically significant differences (p<0.001) compared with control by two-sided Student's t test. Statistical significance of difference was determined following image analyses as described in methods section.

[2] = tested on: normal human aortic vascular smooth muscle cells (HAVSMC); assay: MTT assay, HAVSMC; format: cell-based
Description: Cell density measurements were performed using a hemocytometer to count reproductive cells resistant to staining with trypan blue. Approximately 20,000 cells were plated into each well of 96-well flat-bottomed micro-titer plates. After 12 h or 24 h incubation at 37° C., medium containing either COH-SR4 (ranging 0-200 μM) or elesclomol (ranging 0-20 μM) were added to the cells. After 24 h, 48 h or 96 h incubation, 20 μL of 5 mg/mL MTT were introduced to each well and incubated for 2 h. The plates were centrifuged and medium was decanted. Cells were subsequently dissolved in 100 μl DMSO with gentle shaking for 2 h at room temperature, followed by measurement of OD570 (91).

[3] = tested on: lung cancer cell lines; assay: TUNEL apoptosis assay, lung cancer cell lines; format: cell-based, human; settings: 1.5 μM, 24 h
Description: […] Apoptosis was determined by the labeling of DNA fragments with terminal deoxynucleotidyl-transferase dUTP nick-end labeling (TUNEL) assay using Promega fluorescence apoptosis detection system, and examined using Zeiss LSM 510 META laser scanning fluorescence microscope with filters 520 and 620 nm according to the protocol described previously (91). Photographs taken at identical exposure at ×400 magnification are presented.
The effect of COH-SR4 was first examined in a NCI panel of cancer cell lines, the results of which indicated good activity of COH-SR4 towards lung cancer (FIG. 78A). […] Values are presented as mean±SD from two separate determinations with eight replicates each (n=16) (FIG. 78B). The COH-SR4 treatment exerted a significant inhibitory effect on the survival of lung cancer cells [IC50: H1417 cells-1.2±0.2 μM, H1618 cells-1.5±0.2 μM, H358 cells-2.1±0.2 μM and H520 cells-2.4±0.3 μM]. […] Following initial screening for the anticancer activity of COH-SR4, the effect of COH-SR4 on clonogenic potential was studied. Standard colony-forming assay was performed and the colonies were counted using Innotech Alpha Imager HP. […] The effect of COH-SR4 on induction of apoptosis was further investigated. […] TUNEL assay was performed using Promega fluorescence detection kit and examined using Zeiss LSM 510 META laser-scanning fluorescence microscope with filters 520 and 620 nm. […]

[4] = tested on: U87; assay: Glioma ATP viability assay, U87; format: cell-based; settings: Homo sapiens, U-87 MG; Table 1; 72 hours
Description: (§1) Cells of each cell line (U251, U87, PBT-017, PBT018, PBT003 and PBT028) were treated with various concentrations (0˜100 μM) of COH-SR4 for 72 hours. Cell viabilities were determined by ATP viability assays. Data were represented as a ratio to vehicle (DMSO) control, and plotted as mean±SEM (n=12) obtained from 2˜3 experiments (FIG. 34A).
as §1, with “(U87, U251,” for “(U251, U87, PBT-017, PBT018,”, “PVT-017)” for “PBT028)”, “2-3” for “2˜3”, “34B).” for “34A).”

Q: Which “Ki67 and CD31 levels” value ([1]; ABC staining) does the source give for `O=C(Nc1cc(Cl)cc(Cl)c1)Nc1cc(Cl)cc(Cl)c1` [COH-SR4, 1,3-bis(3,5-dichlorophenyl) urea] here?
A: decreased the levels of proliferation marker Ki67, and angiogenesis marker CD31

Q: And the “pAMPK and E-cadherin levels” value [1]?
A: increased the levels of pAMPK and normal differentiation marker E-cadherin

Q: What about the “cytotoxicity in normal cells” value ([2]; 96 h) of the same molecule?
A: did not cause any significant cytotoxicity

Q: And the “cytotoxicity in normal cells” value ([2]; concentrations effective in lung cancer cell lines, 48 h)?
A: did not exert any significant cytotoxicity

Q: What about the “apoptosis (TUNEL)” value [3] of the same molecule?
A: induced apoptosis in all the lung cancer cell lines

Q: What about the IC50 [4] of the same molecule?
A: 2800 nM
